Test results taken from patent US7094909B2, “HIV protease inhibitors, compositions containing the same, their pharmaceutical uses and materials for their synthesis” (priority 2001, dated 2006).
Read-outs that look alike come from different tables or passages of the source.

Legend:
[1] = target: T1, HIV-1 protease (Q7S mutant form) (Human immunodeficiency virus type 1 group M subtype B, UniProt P04585, Q495S); test: HIV-1 Protease RET assay; assay type: biochemical; details: Ave. Ki (nM), RET assay, Q7S enzyme, Morrison tight binding fit
T1 construct: made in house
Procedure, shortened: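 Q7S HIV-1 protease, refolded from urea, 2 nM active dimer with 5 μM EDANS/DABCYL peptide cleaved at Tyr-Pro; fluorescence 340/490 nm. 12 min at 37 °C in 0.1M sodium acetate pH 4.8, 1M NaCl, 10% DMSO. Ki from Morrison tight-binding fit.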

[2] = tested on: HIV-1 (HIV-1 RF, HIV-1 NL4-3) in CEM-SS / MT-2 cells; test: Cytopathic effect (CPE) inhibition assay (XTT/MTT dye reduction); assay type: cell-based
Procedure, shortened: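 CEM-SS or MT-2 cells were infected with HIV-1 RF or NL4-3 (moi 0.025–0.819) and plated at 2×10^4 cells/well with half-log compound dilutions for 6 days. Viability was read by XTT formazan at 450 nm after 4 h. EC50 restores formazan to 50% of uninfected untreated cells, CC50 halves it in uninfected cells, and TI = CC50/EC50.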

461, 84V, 90M virus = test: Phenotypic susceptibility assay at Virologic, Inc.; assay type: cell-based, HIV-1; details: Human immunodeficiency virus 1, read-out: EC50 or IC50 (mM), values with asterisk (IC50)
Procedure: Compounds were tested in phenotypic susceptibility assays at Virologic, Inc., (See Petropoulos C. J., Parkin N. T., Limoli K. L., Lie Y. S., Wrin T., Huang W., Tian H., Smith D., Winslow G. A., Capon D J, Whitcomb J M. 2000, “A novel phenotypic drug susceptibility assay for human immunodeficiency virus type 1,” Antimicrob Agents Chemother 44(4):920–928) or using the assay described here. MT-2 cells were infected with either HIV-1 NL4-3 or HIV-1 NL4-3([…]) and incubated in the presence of serial 0.5 log dilutions of test compounds. Three days later, culture supernatants were collected and virus production, as determined by p24 ELISA, was assayed. Percent inhibition was calculated as p24 concentration in compound-treated samples as compared to infected, compound-free controls. Inhibition of viral replication is determined by measuring reduction in HIV p24 present in the culture supernatant, using a Beckman-Coulter p24HIV-1 Ag EIA kit and following the supplied protocol. Absorbance is read on a MRX microplate reader (Dynex Technologies). The EC50 was calculated as the concentration of compound that effected a decrease in the p24 production by infected, compound-treated cells to 50% of that produced by infected, compound-free cells.

[3] = Human immunodeficiency virus 1, NL43, read-out: Ave CPE EC50

Work on COc1cccc(CNC(=O)[C@H]2N(C(=O)[C@@H](O)C(Cc3ccccc3)NC(=O)c3cccc(O)c3C)CSC2(C)C)c1 (single isomer, unassigned) yielded a melting point of 108 to 110 °C.
With Cc1c(O)cccc1C(=O)N[C@@H](Cc1ccccc1)[C@H](O)C(=O)N1CSC(C)(C)[C@H]1C(=O)N[C@H]1CCCc2ccccc21 [Example A1, 3-[2-Hydroxy-3-(3-hydroxy-2-methyl-benzoylamino)-4-phenyl-butyryl]-5,5-dimethyl-thiazolidine-4-carboxylic acid (1,2,3,4-tetrahydro-naphthalen-1-yl)-amide] the Ki [1] was 0.21 nM, the EC50 [2, 3] was 29 nM and the melting point was 125 to 126 °C.
With Cc1c(O)cccc1C(=O)N[C@@H](Cc1ccccc1)[C@H](O)C(=O)N1CSC(C)(C)[C@H]1C(=O)N[C@@H]1CCCc2ccccc21 [Example A4, 3-[2-Hydroxy-3-(3-hydroxy-2-methyl-benzoylamino)-4-phenyl-butyryl]-5,5-dimethyl-thiazolidine-4-carboxylic acid (1,2,3,4-tetrahydro-naphthalen-1-yl)-amide] the Ki [1] was 2.2 nM, the EC50 [2, 3] was 270 nM and the melting point was 123 to 125 °C.
Cc1c(O)cccc1C(=O)N[C@@H](Cc1ccccc1)[C@H](O)C(=O)N1CSC(C)(C)[C@H]1C(=O)NC[C@H]1CCCO1 [Example A12, (R)-3-((2S,3S)-2-Hydroxy-3-{[1-(3-hydroxy-2-methyl-phenyl)-methanoyl]-amino}-4-phenyl-butanoyl)-5,5-dimethyl-thiazolidine-4-carboxylic acid [(R)-1-(tetrahydro-furan-2-yl)methyl]-amide] gave a Ki [1] of 5.5 nM, an EC50 [2, 3] of 127 nM and a melting point of 105 to 107 °C.
Work on Cc1c(O)cccc1C(=O)N[C@@H](Cc1ccccc1)[C@H](O)C(=O)N1CSC(C)(C)[C@H]1C(=O)NCC1CCCCC1 [Example A13, 3-[2-Hydroxy-3-(3-hydroxy-2-methyl-benzoylamino)-4-phenyl-butyryl]-5,5-dimethyl-thiiazolidine-4-carboxylic acid cyclohexylmethyl-amide] yielded a Ki [1] of 3.4 nM, an EC50 [2, 3] of 495 nM and an IC50 (461, 84V, 90M virus) of 921 nM.
Cc1c(O)cccc1C(=O)N[C@@H](Cc1ccccc1)[C@H](O)C(=O)N1CSC(C)(C)[C@H]1C(=O)NCc1ccc2c(c1)OCO2 [Example A14, 3-((2S,3S)-2-Hydroxy-3-{[1-(3-hydroxy-2-methyl-phenyl)-methanoyl]-amino}-4-phenyl-butanoyl)-5,5-dimethyl-thiazolidine-4-carboxylic acid (benzo[1,3]dioxol-5-ylmethyl)-amide] gave a Ki [1] of 0.32 nM, an EC50 ([2]; Human immunodeficiency virus 1, NL43, read-out: Ave CPE EC50 (mM)) of 61 nM and an IC50 (461, 84V, 90M virus) of 226 nM.
Cc1c(O)cccc1C(=O)N[C@@H](Cc1ccccc1)[C@H](O)C(=O)N1CSC(C)(C)[C@H]1C(=O)NCc1ccco1 [Example A15, (R)-3-((2S,3S)-2-Hydroxy-3-{[1-(3-hydroxy-2-methyl-phenyl)-methanoyl]-amino}-4-phenyl-butanoyl)-5,5-dimethyl-thiazolidine-4-carboxylic acid (furan-2-ylmethyl)-amide] gave a Ki [1] of under 0.1 nM, an EC50 [2, 3] of 55 nM and an IC50 (461, 84V, 90M virus) of 57 nM.
Cc1c(O)cccc1C(=O)N[C@@H](Cc1ccccc1)[C@H](O)C(=O)N1CSC(C)(C)[C@H]1C(=O)N[C@@H]1CCOc2ccccc21 [Example A16, (R)-3-((2S,3S)-2-Hydroxy-3-{[1-(3-hydroxy-2-methyl-phenyl)-methanoyl]-amino}-4-phenyl-butanoyl)-5,5-dimethyl-thiazolidine-4-carboxylic acid (R)-chroman4-ylamide] showed a Ki [1] of 0.43 nM, an EC50 [2, 3] of 254 nM and a melting point of 135 to 136 °C.
For Cc1c(O)cccc1C(=O)N[C@@H](Cc1ccccc1)[C@H](O)C(=O)N1CSC(C)(C)[C@H]1C(=O)N[C@@H]1CCSc2ccccc21 [Example A18, (R)-3-((2S,3S)-2-Hydroxy-3-{[1-(3-hydroxy-2-methyl-phenyl)-methanoyl]-amino}-4-phenyl-butanoyl)-5,5-dimethyl-thiazolidine-4-carboxylic acid (R)-thiochroman-4-ylamide], the Ki [1] was 0.3 nM, the EC50 [2, 3] was 27 nM and the melting point was 125 to 127 °C.
In the case of Cc1c(O)cccc1C(=O)N[C@@H](Cc1ccccc1)[C@H](O)C(=O)N1CSC(C)(C)[C@H]1C(=O)N[C@H]1CCSc2ccccc21 [Example A19, (R)-3-((2S,3S)-2-Hydroxy-3-{[1-(3-hydroxy-2-methyl-phenyl)-methanoyl]-amino}-4-phenyl-butanoyl)-5,5-dimethyl-thiazolidine-4-carboxylic acid (S)-thiochroman-4-ylamide], the Ki [1] is reported as 0.21 nM, the EC50 [2, 3] is reported as 15 nM and the melting point is reported as 125 to 127 °C.
For Cc1c(O)cccc1C(=O)N[C@@H](Cc1ccccc1)[C@H](O)C(=O)N1CSC(C)(C)[C@H]1C(=O)NCC1CC1 [Example A20, (R)-3-((2S,3S)-2-Hydroxy-3-{[1-(3-hydroxy-2-methyl-phenyl)-methanoyl]-amino}-4-phenyl-butanoyl)-5,5-dimethyl-thiazolidine-4-carboxylic acid cyclopropylmethyl-amide], the Ki [1] was 0.16 nM, the EC50 [2, 3] was 35 nM and the IC50 (461, 84V, 90M virus) was 219 nM.
In the case of Cc1c(O)cccc1C(=O)N[C@@H](Cc1ccccc1)[C@H](O)C(=O)N1CSC(C)(C)[C@H]1C(=O)NC1CCCCC1 [Example A21, (R)-3-((2S,3S)-2-Hydroxy-3-{[1-(3-hydroxy-2-methyl-phenyl)-methanoyl]-amino)-4-phenyl-butanoyl)-5,5-dimethyl-thiazolidine-4-carboxylic acid cyclohexylamide], the Ki [1] is reported as under 0.1 nM, the EC50 [2, 3] is reported as 49 nM and the IC50 (461, 84V, 90M virus) is reported as 655 nM.
With Cc1c(O)cccc1C(=O)N[C@@H](Cc1ccccc1)[C@H](O)C(=O)N1CSC(C)(C)[C@H]1C(=O)NCc1cccs1 [Example A23, (R)-3-((2S,3S)-2-Hydroxy-3-{[1-(3-hydroxy-2-methyl-phenyl)-methanoyl]-amino}-4-phenyl-butanoyl)-5,5-dimethyl-thiazolidine-4-carboxylic acid (thiophen-2-ylmethyl)-amide] the Ki [1] was 2.6 nM, the EC50 [2, 3] was 17 nM and the IC50 (461, 84V, 90M virus) was 48 nM.
Cc1ccccc1CNC(=O)[C@H]1N(C(=O)[C@@H](O)[C@H](Cc2ccccc2)NC(=O)O[C@H]2CCOC2)CSC1(C)C [Example B1, {1-Benzyl-3-[5,5-dimethyl-4-(2-methyl-benzylcarbamoyl)-thiazoldin-3-yl]-2-hydroxy-3-oxo-propyl}-carbamic acid tetrahydropfuran-3-yl-ester] showed a Ki [1] of 0.27 nM, an EC50 [2, 3] of 49 nM and an IC50 (461, 84V, 90M virus) of 236 nM.
Work on Cc1ccccc1CNC(=O)[C@H]1N(C(=O)[C@@H](O)[C@H](Cc2ccccc2)NC(=O)c2cccc3c2CCN3)CSC1(C)C [Example B6, 2,3-Dihydro-1H-indole-4-carboxylic acid {(1S,2S)-1-benzyl-3-[(R)-5,5-dimethyl-4-(2-methyl-benzylcarbamoyl)-thiazolidin-3-yl]-2-hydroxy-3-oxo-propyl}-amide] yielded a Ki [1] of 0.31 nM, an EC50 [2, 3] of 95 nM and an IC50 (461, 84V, 90M virus) of 405 nM.
Cc1ccccc1CNC(=O)[C@H]1N(C(=O)[C@@H](O)[C@H](Cc2ccccc2)NC(=O)COc2c(C)cccc2C)CSC1(C)C [Example B7, (R)-3-{(2S,3S)-3-[2-(2,6-Dimethylphenoxy)-ethanoylamino]-2-hydroxy-4-phenyl-butanoyl}-5,5-dimethylthiazolidine-4-carboxylic acid 2-methyl-benzylamide] showed a Ki [1] of under 0.1 nM, an EC50 [2, 3] of 265 nM and an IC50 (461, 84V, 90M virus) of 333 nM.
Work on CCCC(=O)N[C@@H](Cc1ccccc1)[C@H](O)C(=O)N1CSC(C)(C)[C@H]1C(=O)NCc1ccccc1C [Example B20, (R)-3-((2S,3S)-3-Butyrylamino-2-hydroxy-4-phenyl-butyryl)-5,5-dimethyl-thiazolidine-4-carboxylic acid 2-methyl-benzylamide] yielded a Ki [1] of 2.1 nM, an EC50 [2, 3] of 1560 nM and an IC50 (461, 84V, 90M virus) of 2080 nM.
Molecule C=CCNC(=O)[C@H]1N(C(=O)[C@@H](O)[C@H](Cc2ccccc2)NC(=O)c2cccc3c2CCN3)CSC1(C)C [Example B21, 2,3-Dihydro-1H-indole-4-carboxylic acid [(1S,2S)-3-((R)-4-allylcarbamoyl-5,5-dimethyl-thiazolidin-3-yl)-1-benzyl-2-hydroxy-3-oxo-propyl]-amide] has a Ki [1] of 0.91 nM, an EC50 [2, 3] of 109 nM and an IC50 (461, 84V, 90M virus) of 547 nM.
